# Test results reported in patent US4792547A, “Pyrazine-2-carboxamide derivatives useful in treating allergic disease” (priority 1985, dated 1988).
# Where a name gives a salt, the structure may show the parent alone.
# Tested on: not listed separately
# Assay: Acute toxicity test (oral)
# Details: mouse, in vivo, po
# Procedure: Male ICR mice 5 weeks old were used as 5 animals at a group. The compounds were administered orally at each dosage.
row,Compound,LD50
1,O=C(Nc1nnn[nH]1)c1cncc(N2CCCC2)n1.[Na],> 2000 mg/kg

# Same assay, conditions: mouse, in vivo; male ICR mice 5 weeks old, oral
row,Compound,LD50
1,"O=C(Nc1nnn[nH]1)c1cncc(N2CCCC2)n1 [Example 8 (free), 6-(1-Pyrrolidinyl)-N-(1H-5-tetrazolyl)pyrazine-2-carboxamide]",> 2000 mg/kg

# Tested on: mast cells
# Assay: Inhibitory effect on histamine release from sensitized rat peritoneal mast cells (DNP-As antigen challenge)
# Type: cell-based, Wistar rats
# Details: Mast cell; rat peritoneal cells passively sensitized with anti-DNP-As rat serum; compound 1 min before DNP-As; 37° C.
# Procedure: The inhibitory effect of histamine release was examined with the under method, while using disodium cromoglycate(II), tranilast (III), and TA-5707F(IV)as reference drugs. Mixed peritoneal cells obtained from male Wistar rats weighing 350-400 g were sensitized by incubating for 2 hr at 37° C. with anti-DNP-As rat serum (produced according to the method of Tada and Okumura [Tada, T. and Okmura, K.: J. Immunology, 106,1002 (1971)]. The cell suspension containing about 1×10^5 mast cells/ml was prepared in Hepes Tyrode buffer containing heparin (10 unit/ml ) and BSA (0.3%). This suspension was divided into 0.8 ml aliquots in separate polyethylene tubes. […] After incubation at 37° C. for 1 min, 0.1 ml of DNP-As solution (50μg/ml) were added, followed by incubation at 37° C. for 2 min. The reactio was terminated by adding 2 ml of the cold buffer. The supernatants were separated by centrifugation, the cell pellets were resuspended in 3 ml buffer and placed for 3 min in the heating block (100° C.) to release the residual histamine into cells. The histamine was quantitated using the spedrofluorometric technique of modified Shore's method. The IC 50 was obtained from the dose-response curve.
row,Compound,IC50
1,"CNc1cncc(C(=O)Nc2nnn[nH]2)n1 [Example 2, 6-(Methylamino)-N-(1H-5-tetrazolyl)pyrazine-2-carboxamide]",2.5 nM
2,"CCNc1cncc(C(=O)Nc2nnn[nH]2)n1 [Example 3, 6-(Ethylamino)-N-(1H-5-tetrazolyl)pyrazine-2-carboxamide]",2 nM
3,"CCCNc1cncc(C(=O)Nc2nnn[nH]2)n1 [Example 4, 6-(n-Propylamino)-N-(1H-5-tetrazolyl)pyrazine-2-carboxamide]",17 nM
4,"CC(C)Nc1cncc(C(=O)Nc2nnn[nH]2)n1 [Example 5, 6-(Isopropylamino)-N-(1H-5-tetrazolyl)pyrazine-2-carboxamide]",5 nM
5,"CN(C)c1cncc(C(=O)Nc2nnn[nH]2)n1 [Example 6, 6-(Dimethylamino)-N-(1H-5-tetrazolyl)pyrazine-2-carboxamide]",0.47 nM
6,"CCN(CC)c1cncc(C(=O)Nc2nnn[nH]2)n1 [Example 7, 6-(Diethylamino)-N-(1H-5-tetrazolyl)pyrazine-2-carboxamide]",15 nM
7,"O=C(Nc1nnn[nH]1)c1cncc(N2CCCC2)n1 [Example 8 (free), 6-(1-Pyrrolidinyl)-N-(1H-5-tetrazolyl)pyrazine-2-carboxamide]",1.2 nM
8,"O=C(Nc1nnn[nH]1)c1cncc(N2CCCCC2)n1 [Example 9, 6-(1-Piperidinyl)-N-(1H-5-tetrazolyl)pyrazine-2-carboxamide]",5.6 nM
9,"O=C(Nc1nnn[nH]1)c1cncc(N2CCOCC2)n1 [Example 14, 6-(4-Morpholinyl)-N-(1H-5-tetrazolyl)pyrazine-2-carboxamide]",36 nM
10,"CN1CCN(c2cncc(C(=O)Nc3nnn[nH]3)n2)CC1 [Example 15, 6-(4-Methyl-1-piperazinyl)-N-(1H-5-tetrazolyl)pyrazine-2-carboxamide hydrochloride hydrate]",36 nM
11,"O=C(Nc1nnn[nH]1)c1cncc(Nc2ccccc2)n1 [Example 16, 6-(Phenylamino)-N-(1H-5-tetrazolyl)pyrazine-2-carboxamide]",0.062 nM
12,"Cc1cccc(C(=O)Nc2nnn[nH]2)n1 [TA-5707F (IV), 6-methyl-N-(1H-5-tetrazolyl) pyridine-2-carboxamide, reference compound]",46 nM
13,"O=C(O)c1cc(=O)c2c(OCC(O)COc3cccc4oc(C(=O)O)cc(=O)c34)cccc2o1 [disodium cromoglycate (II), disodium cromoglycate, reference compound]",190 nM
14,"COc1ccc(/C=C/C(=O)Nc2ccccc2C(=O)O)cc1OC [tranilast (III), tranilast, reference compound]",24000 nM

# Tested on: not given
# Assay: not given
# Details: daily dosage about 300 mg, oral; cited from earlier work
row,Compound,side effects in the digestive system
1,"COc1ccc(/C=C/C(=O)Nc2ccccc2C(=O)O)cc1OC [tranilast (III), tranilast, reference compound]","nausea, abdominal pain, and gastric discomfort"

# Same assay, conditions: human, in vivo; cited from earlier work
row,Compound,physical discomfort in the throat
1,"O=C(O)c1cc(=O)c2c(OCC(O)COc3cccc4oc(C(=O)O)cc(=O)c34)cccc2o1 [disodium cromoglycate (II), disodium cromoglycate, reference compound]",feeling of physical discomfort in the throat
